Results published in patent US11869191B2, “System and method for tissue viability screening” (THE REGENTS OF THE UNIVERSITY OF CALIFORNIA, priority 2019, dated 2024).

Test system: pre-implantation mouse embryos
Test: Inhibition of glycolysis, phasor-FLIM of NADH lifetime in embryos
Format: cell-based
Details: 1 mM, early blastocyst stage embryos; g value vs control p-value=3.88E-09
Method: Embryos were placed in 25 μl microdroplets of KSOMaa (Invitrogen) with the appropriate inhibitors covered in mineral oil (Sigma). Both of the two chemical inhibitors, rotenone and antimycin A cocktail (R&A) and 2-Deoxyglucose (2DeoxyG) were dissolved in KSOMaa. For R&A, the inhibitor was prepared to perform dose dependence measurements for a final concentration of 100 nM and 500 nM. For 2DeoxyG, the inhibitor has a final concentration of 1 mM. KSOMaa was used as a solvent and culture media for the control group and treatment group embryos.
Fluorescence lifetime images of the pre-implantation embryos were acquired on Zeiss LSM710 (Carl Zeiss, Jena, Germany), a multi-photon microscope coupled with a Ti: Sapphire laser (Spectra-Physics Mai Tai, Mountain View, CA) with 80 MHz repetition rate. […] A dichroic filter at 690 nm was used to separate the fluorescence signal from the laser light. And the emission signal was split with 496 nm LP filter and detected in two channels using a band pass filter 460/80 and a 540/50 filter. […] FLIM calibration of the system was performed by measuring the known lifetime of a fluorophore coumarin 6 (dissolved in ethanol), which has a known fluorescence lifetime of T=2.5 ns(37, 38). […] FLIM data were acquired and processed by the SimFCS software developed at the Laboratory of Fluorescence Dynamics (LFD). […]

For O=CC[C@@H](O)[C@H](O)[C@H](O)CO [2DeoxyG, 2-Deoxy-D-Glucose], the “phasor-FLIM lifetime distribution (free/bound NADH) compared to controls” value was “shifted the phasor-FLIM distribution to longer lifetime”.
